According to US20150316556A1, “SSEA4 AND ST3GAL2 AS CHEMOTHERAPEUTIC DRUG RESPONSE BIOMARKERS” (Miltenyi Biotech GmbH, priority 2014, published 2015):

Legend:
[1] = system: primary tumor cell line derived from model HBCx-17 (suspension and adherent cells); assay: IC50 values of commonly used chemotherapeutic drugs on suspension versus adherent subpopulations of a primary tumor cell line; type: cell-based, human; details: HBCx-17 derived primary tumor cell line; n=3; suspension vs adherent subpopulation
[2] = system: epithelial breast cell line MCF10A; assay: EMT induction in epithelial breast cell line by TGFβ1; type: cell-based, human
Protocol: The expression of SSEA4 was evaluated upon EMT induction. To induce a mesenchymal transition, the epithelial breast cell line MCF10A was treated with TGFβ1 at concentrations of 10 and 20 ng/ml. […] F-actin was stained by Phalloidin to visualize the cytoskeleton architecture. […] The fraction of SSEA4 positive cells was increased upon EMT induction (FIG. 8E) verifying that expression of SSEA4 indicates a more mesenchymal phenotype.
The results of the mRNA and the miRNA analysis strongly indicate that the expression of SSEA4 correlates with a more mesenchymal phenotype. […] To induce a mesenchymal transition, the epithelial breast cell line MCF10A was treated with TGFβ1 at concentrations of 10 and 20 ng/ml. […] Previously known key EMT markers like EpCAM, E-cadherin, Vimentin, and Fibronectin were regulated as expected, proving the efficiency of EMT induction using our method (FIG. 8 and data not shown). […] Strikingly, the fraction of SSEA4 positive cells was increased upon EMT induction verifying the correlation between SSEA4 expression and a more mesenchymal phenotype (FIG. 8).

Molecule	IC50 values of suspension cells (higher SSEA4 expression) compared to adherent cells [1]	also measured
O=c1[nH]cc(F)c(=O)[nH]1 [5-Fluorouracil]	higher IC50 values	–
CC(=O)O[C@@]12CO[C@@H]1C[C@H](O)[C@@]1(C)C(=O)[C@H](O)C3=C(C)[C@@H](OC(=O)[C@H](O)[C@@H](NC(=O)OC(C)(C)C)c4ccccc4)C[C@@](O)([C@@H](OC(=O)c4ccccc4)[C@H]21)C3(C)C [Docetaxel]	higher IC50 values	–
COc1cc([C@@H]2c3cc4c(cc3[C@@H](O[C@@H]3O[C@@H]5CO[C@@H](C)O[C@H]5[C@H](O)[C@H]3O)[C@H]3COC(=O)[C@H]23)OCO4)cc(OC)c1O [Etoposide]	no difference	–
CCc1c2c(nc3ccc(OC(=O)N4CCC(N5CCCCC5)CC4)cc13)-c1cc3c(c(=O)n1C2)COC(=O)[C@]3(O)CC [Irinotecan]	decreased IC50 values	–
CC[C@@]1(O)C(=O)OCc2c1cc1n(c2=O)Cc2cc3c(CN(C)C)c(O)ccc3nc2-1 [Topotecan]	decreased IC50 values	–
COc1cccc2c1C(=O)c1c(O)c3c(c(O)c1C2=O)C[C@@](O)(C(=O)CO)C[C@@H]3O[C@H]1C[C@H](N)[C@H](O)[C@H](C)O1 [doxorubicin]	higher IC50 values	–
TGFβ1: TGFβ1 used to induce a mesenchymal transition (EMT) in MCF10A cells	–	cell morphology upon treatment ([2]; TGFβ1 10 and 20 ng/ml): almost all cells changed their morphology from a compacted colony type to an elongated fibroblastic shape; epithelial marker E-cadherin expression upon treatment ([2]; TGFβ1 10 and 20 ng/ml): downregulated; epithelial marker EpCAM expression upon treatment ([2]; TGFβ1 10 and 20 ng/ml): downregulated; fraction of SSEA4 positive cells upon EMT induction ([2]; TGFβ1 10 and 20 ng/ml): increased; mesenchymal marker Fibronectin expression upon treatment ([2]; TGFβ1 10 and 20 ng/ml): upregulated; invasive potential of treated cells ([2]; TGFβ1, data not shown): strongly increased
